Calls of active or inactive are those of the source.
How the values were obtained:
HeLa = assay: ATP-based viability loss in HeLa cells – cell-based, CellTiter-Glo luminescence, cherry-pick samples, cytotoxicity control for MITF activator project, dose response (AID 540259); format: functional; conditions: Homo sapiens
[1] = Counterscreen for AddAB inhibitors: absorbance-based bacterial cell-based high throughput dose response assay for inhibitors of bacterial viability. [Related pubchem assays (depositor defined):AID435030, AID449728, AID449731, AID488942, AID488955, AID488956]; format: functional
[2] = non-specific 3'UTR reporter inhibition in Clone20-Shn3RL – cell-based, Renilla luciferase, cherry-picked, counter-screen for Shn3 inhibitor project, dose response (AID 624133); format: functional
cells [3] = format: functional, cell-based
HEK293 [4] = assay: EBV LMP1 TES2 canonical NF-kB signalling blockers – cell-based, HEK293, luciferase, cherry-pick, dose response (AID 588343); format: functional; conditions: Homo sapiens
Exodeoxyribonuclease V = target: T1, Exodeoxyribonuclease V (Escherichia coli (strain K12), UniProt P04993+P07648+P08394); assay: RecBCD inhibition via phage-restricted bacterial growth – absorbance, V66 E. coli, mutant T4 phage, counter-screen for AddAB inhibitor project, dose response (AID 492957); format: functional, cell-based, Escherichia coli str. K-12 substr. MG1655
T1 sequence (P04993 whole entry): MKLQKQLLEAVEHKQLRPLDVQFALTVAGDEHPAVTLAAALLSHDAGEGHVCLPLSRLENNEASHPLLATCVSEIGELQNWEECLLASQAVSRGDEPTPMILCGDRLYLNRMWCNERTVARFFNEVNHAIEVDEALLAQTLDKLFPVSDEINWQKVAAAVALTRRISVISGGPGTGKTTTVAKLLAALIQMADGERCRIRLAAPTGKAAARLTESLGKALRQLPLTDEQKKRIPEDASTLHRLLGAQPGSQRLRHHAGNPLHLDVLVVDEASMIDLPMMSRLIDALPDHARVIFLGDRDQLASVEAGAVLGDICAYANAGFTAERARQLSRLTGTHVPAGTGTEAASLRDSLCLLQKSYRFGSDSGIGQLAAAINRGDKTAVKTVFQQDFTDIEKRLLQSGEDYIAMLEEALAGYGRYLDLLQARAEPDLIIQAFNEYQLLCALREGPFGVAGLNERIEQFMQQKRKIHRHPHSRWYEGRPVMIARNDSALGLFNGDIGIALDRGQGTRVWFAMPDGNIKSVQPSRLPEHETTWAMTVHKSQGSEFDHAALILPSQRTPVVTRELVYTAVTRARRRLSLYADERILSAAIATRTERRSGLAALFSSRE
T1 sequence (P07648 whole entry): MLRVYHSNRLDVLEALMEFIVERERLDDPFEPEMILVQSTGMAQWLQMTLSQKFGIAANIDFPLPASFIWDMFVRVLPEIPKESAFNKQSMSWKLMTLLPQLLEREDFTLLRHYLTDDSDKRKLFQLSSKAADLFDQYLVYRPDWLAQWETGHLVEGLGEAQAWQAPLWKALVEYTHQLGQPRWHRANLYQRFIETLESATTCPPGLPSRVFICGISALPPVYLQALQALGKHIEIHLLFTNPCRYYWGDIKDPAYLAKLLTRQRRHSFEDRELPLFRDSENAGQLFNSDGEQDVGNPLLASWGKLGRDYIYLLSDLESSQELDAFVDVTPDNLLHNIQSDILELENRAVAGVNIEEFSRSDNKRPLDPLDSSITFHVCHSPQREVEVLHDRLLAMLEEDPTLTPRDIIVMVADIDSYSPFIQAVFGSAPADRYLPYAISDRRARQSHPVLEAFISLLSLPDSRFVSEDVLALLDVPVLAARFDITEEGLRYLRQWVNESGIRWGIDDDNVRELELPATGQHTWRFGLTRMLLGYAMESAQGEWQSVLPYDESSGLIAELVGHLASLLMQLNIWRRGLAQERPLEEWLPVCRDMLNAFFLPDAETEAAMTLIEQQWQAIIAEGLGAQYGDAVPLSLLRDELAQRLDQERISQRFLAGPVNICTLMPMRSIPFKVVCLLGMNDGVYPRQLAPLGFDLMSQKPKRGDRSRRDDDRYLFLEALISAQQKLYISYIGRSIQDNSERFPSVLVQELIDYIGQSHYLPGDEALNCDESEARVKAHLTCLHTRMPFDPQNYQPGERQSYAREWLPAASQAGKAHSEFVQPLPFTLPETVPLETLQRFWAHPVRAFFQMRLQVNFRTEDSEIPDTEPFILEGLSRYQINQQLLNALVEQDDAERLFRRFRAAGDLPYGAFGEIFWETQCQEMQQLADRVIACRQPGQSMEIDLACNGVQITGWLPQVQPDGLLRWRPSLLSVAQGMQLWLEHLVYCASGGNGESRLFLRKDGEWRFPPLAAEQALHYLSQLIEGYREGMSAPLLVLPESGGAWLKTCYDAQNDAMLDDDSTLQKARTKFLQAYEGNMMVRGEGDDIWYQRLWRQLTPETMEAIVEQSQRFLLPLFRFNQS
T1 sequence (P08394 whole entry): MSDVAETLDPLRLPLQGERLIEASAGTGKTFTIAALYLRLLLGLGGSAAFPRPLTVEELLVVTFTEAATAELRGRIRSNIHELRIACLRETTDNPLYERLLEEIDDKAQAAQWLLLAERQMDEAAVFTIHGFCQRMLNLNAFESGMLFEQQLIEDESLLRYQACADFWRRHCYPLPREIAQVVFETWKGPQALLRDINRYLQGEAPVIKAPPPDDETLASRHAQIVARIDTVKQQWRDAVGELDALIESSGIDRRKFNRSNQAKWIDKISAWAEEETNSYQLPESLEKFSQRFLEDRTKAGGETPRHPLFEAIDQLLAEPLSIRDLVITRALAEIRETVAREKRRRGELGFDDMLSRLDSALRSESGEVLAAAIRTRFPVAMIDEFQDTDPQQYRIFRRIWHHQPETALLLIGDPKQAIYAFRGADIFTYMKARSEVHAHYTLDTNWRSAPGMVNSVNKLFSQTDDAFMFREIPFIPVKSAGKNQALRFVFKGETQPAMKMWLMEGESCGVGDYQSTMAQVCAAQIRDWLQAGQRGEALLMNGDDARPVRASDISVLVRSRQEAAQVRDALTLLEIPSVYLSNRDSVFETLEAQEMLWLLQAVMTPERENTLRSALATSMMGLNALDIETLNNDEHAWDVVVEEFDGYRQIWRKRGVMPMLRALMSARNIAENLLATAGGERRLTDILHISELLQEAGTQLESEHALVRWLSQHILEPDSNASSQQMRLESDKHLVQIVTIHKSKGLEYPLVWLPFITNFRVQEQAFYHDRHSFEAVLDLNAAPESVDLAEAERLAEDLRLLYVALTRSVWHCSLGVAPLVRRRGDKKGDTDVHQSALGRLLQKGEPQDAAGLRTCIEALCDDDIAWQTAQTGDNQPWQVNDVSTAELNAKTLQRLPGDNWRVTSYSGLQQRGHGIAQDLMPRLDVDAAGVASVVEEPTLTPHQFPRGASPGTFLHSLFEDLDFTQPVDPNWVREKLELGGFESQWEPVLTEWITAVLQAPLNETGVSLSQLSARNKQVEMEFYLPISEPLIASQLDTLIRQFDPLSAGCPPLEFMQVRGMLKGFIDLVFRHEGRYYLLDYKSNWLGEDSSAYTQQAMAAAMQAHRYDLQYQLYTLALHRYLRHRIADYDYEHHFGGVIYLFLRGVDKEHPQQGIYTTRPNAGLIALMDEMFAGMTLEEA

[5] = loss of viability in HepG2 cells – cell-based, CellTiter-Glo, cherry-picked, cytotoxicity control for Shn3 inhibitor project, dose response (AID 624134); format: functional
cells [6] = format: functional, cell-based; remark: listed apart in the source
[7] = reduction of Shn3 3'UTR-driven luciferase in osteoblasts – cell-based, Clone20 osteoblasts, firefly luciferase, cherry-picked, dose response (AID 624132); format: functional;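 also: firefly luciferase luminescence from reporter carrying the Shn3 3'UTR in osteoblasts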
[8] = target: Heat shock protein HSP 90-alpha (Homo sapiens, UniProt P07900); format: functional, organism-based
[9] = nonselective StAR promoter luciferase inhibitors – cell-based, luminescence, luciferase reporter, counter-screen for LRH-1 inverse agonist project, dose response (AID 651969); format: functional
cells [10] = format: functional
Steroidogenic factor 1 = Steroidogenic factor 1 (Homo sapiens, UniProt Q13285); assay: Counterscreen for inverse agonists of the liver receptor homolog-1 (LRH-1; NR5A2): Luminescence-based cell-based high throughput dose response assay to identify inverse agonists of the Steroidogenic Factor 1 Nuclear Receptor (SF1; NR5A1).; format: functional
Chain of Steroidogenic factor 1 (Q13285 whole entry): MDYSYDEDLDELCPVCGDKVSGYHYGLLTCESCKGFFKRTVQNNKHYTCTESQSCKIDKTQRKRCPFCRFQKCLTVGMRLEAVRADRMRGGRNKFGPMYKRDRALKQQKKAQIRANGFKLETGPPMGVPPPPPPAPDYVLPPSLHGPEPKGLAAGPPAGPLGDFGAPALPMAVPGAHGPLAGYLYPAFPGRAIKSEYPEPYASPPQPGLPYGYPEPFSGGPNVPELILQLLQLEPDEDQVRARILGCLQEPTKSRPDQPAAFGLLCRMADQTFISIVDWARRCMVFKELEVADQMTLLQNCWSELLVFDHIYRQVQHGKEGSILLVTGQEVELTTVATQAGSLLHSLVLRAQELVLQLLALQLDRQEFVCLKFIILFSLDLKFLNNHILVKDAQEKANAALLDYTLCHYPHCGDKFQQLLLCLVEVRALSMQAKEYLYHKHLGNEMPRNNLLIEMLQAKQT

[11] = target: Nuclear receptor subfamily 5 group A member 2 (Homo sapiens, UniProt O00482); format: functional, cell-based;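 also: HEK293T cells transfected with LRH-1 and a StAR promoter luciferase reporter; potency for inhibitors that lower LRH-1 driven reporter light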
Chain of Nuclear receptor subfamily 5 group A member 2 (O00482 whole entry): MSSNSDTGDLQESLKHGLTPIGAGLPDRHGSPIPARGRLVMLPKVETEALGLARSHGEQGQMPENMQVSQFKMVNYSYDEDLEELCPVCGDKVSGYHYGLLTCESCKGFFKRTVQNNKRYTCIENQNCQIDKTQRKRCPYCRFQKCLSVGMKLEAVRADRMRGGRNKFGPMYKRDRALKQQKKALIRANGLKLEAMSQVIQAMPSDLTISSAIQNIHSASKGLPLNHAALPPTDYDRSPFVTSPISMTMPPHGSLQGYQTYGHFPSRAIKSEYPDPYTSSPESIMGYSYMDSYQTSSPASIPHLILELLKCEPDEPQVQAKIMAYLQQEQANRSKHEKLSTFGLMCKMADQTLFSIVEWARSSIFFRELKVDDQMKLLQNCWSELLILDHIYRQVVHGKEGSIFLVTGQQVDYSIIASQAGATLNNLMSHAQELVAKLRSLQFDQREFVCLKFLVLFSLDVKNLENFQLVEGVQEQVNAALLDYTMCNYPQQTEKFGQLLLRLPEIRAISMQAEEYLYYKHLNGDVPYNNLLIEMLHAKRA

[12] = Vero E6 cell cytotoxicity, dose response, cytotoxicity control for non-replicating M. tuberculosis project, secondary assay (AID 492998); format: functional, VeroE6; conditions: Vero C1008
[13] = THP-1 cell cytotoxicity, dose response, cytotoxicity control for non-replicating M. tuberculosis project (AID 489025); format: functional
Phospholipase A2 = Phospholipase A2 (Homo sapiens, UniProt P04054); format: functional;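 also: confirmatory dose-response counterscreen on phospholipase A2, testing hits that came from an ultra-high-throughput screen for ATG4B inhibitors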
Chain of Phospholipase A2 (P04054 whole entry): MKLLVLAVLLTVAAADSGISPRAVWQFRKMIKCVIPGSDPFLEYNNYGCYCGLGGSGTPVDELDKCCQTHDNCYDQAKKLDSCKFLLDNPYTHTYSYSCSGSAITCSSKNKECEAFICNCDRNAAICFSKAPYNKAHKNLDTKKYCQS

HEK293 [14] = assay: NOD2 signaling inhibitors in MDP-stimulated cells, cell-based, uHTS, luminescence (AID 2001); format: functional; conditions: Homo sapiens
[15] = target: Luciferin 4-monooxygenase (Photinus pyralis, UniProt P08659); assay: inhibition of purified Photinus pyralis luciferase – biochemical, luminescence, dose response (AID 1891)
Chain of Luciferin 4-monooxygenase (P08659 whole entry): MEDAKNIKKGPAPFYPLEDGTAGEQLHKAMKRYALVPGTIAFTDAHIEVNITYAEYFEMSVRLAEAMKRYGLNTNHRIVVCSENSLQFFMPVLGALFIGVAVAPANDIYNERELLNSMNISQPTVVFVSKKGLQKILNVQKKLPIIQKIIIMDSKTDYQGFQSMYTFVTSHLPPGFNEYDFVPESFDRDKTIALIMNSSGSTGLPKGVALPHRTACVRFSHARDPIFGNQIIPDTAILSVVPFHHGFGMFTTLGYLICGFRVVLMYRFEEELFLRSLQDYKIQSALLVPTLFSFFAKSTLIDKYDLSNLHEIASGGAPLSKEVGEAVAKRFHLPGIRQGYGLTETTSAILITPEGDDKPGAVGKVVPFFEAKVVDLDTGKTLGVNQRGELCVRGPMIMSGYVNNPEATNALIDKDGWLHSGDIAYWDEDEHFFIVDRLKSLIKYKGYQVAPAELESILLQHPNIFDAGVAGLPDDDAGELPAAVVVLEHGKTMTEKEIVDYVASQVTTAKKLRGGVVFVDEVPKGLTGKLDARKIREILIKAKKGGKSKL

HEK293 [16] = assay: cells; format: functional, cell-based; conditions: Homo sapiens
[17] = HEK-293T cell viability reduction – luminescence, B-cell screen hits, cytotoxicity control for BCR NF-kB inhibitor project, dose response (AID 489021); format: functional, cell-based;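 also: HEK-293T cells carrying an NF-kB luciferase reporter; cells exposed to compound for about 14 hours before viability readout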
HEK293 [18] = assay: cells; format: functional, cell-based; conditions: Homo sapiens; remark: listed apart in the source
Cysteine protease ATG4B = target: T2, Cysteine protease ATG4B (Homo sapiens, UniProt Q9Y4P1); format: functional;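 also: Fluorescence-based dose-response confirmation assay measuring inhibition of ATG4B activity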
T2 sequence (Q9Y4P1 whole entry): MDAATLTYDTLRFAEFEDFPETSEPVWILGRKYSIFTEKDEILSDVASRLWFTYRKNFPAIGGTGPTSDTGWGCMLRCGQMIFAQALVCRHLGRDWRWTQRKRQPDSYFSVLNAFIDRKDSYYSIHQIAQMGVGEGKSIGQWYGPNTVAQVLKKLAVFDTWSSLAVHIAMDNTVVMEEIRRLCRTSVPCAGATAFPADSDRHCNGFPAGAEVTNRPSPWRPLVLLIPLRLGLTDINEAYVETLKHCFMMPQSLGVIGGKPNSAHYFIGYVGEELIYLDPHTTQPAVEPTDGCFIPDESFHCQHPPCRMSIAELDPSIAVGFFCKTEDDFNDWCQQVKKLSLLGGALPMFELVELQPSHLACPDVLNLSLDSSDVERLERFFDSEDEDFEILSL

HEK293 [19] = assay: inhibition of NOD1-driven NF-kB reporter – cell-based, luminescence, uHTS, primary screen (AID 1578); format: functional; conditions: Homo sapiens
HEK293 [20] = assay: cells; format: functional, cell-based; conditions: Homo sapiens; remark: listed apart in the source
[21] = target: Nucleotide-binding oligomerization domain-containing protein 2 (Homo sapiens, UniProt Q9HC29); assay: inhibition of NOD2-driven NF-kB reporter – cell-based, luminescence, uHTS, HEK293 (AID 1566); format: functional
Chain of Nucleotide-binding oligomerization domain-containing protein 2 (Q9HC29 whole entry, the tested form may be a part): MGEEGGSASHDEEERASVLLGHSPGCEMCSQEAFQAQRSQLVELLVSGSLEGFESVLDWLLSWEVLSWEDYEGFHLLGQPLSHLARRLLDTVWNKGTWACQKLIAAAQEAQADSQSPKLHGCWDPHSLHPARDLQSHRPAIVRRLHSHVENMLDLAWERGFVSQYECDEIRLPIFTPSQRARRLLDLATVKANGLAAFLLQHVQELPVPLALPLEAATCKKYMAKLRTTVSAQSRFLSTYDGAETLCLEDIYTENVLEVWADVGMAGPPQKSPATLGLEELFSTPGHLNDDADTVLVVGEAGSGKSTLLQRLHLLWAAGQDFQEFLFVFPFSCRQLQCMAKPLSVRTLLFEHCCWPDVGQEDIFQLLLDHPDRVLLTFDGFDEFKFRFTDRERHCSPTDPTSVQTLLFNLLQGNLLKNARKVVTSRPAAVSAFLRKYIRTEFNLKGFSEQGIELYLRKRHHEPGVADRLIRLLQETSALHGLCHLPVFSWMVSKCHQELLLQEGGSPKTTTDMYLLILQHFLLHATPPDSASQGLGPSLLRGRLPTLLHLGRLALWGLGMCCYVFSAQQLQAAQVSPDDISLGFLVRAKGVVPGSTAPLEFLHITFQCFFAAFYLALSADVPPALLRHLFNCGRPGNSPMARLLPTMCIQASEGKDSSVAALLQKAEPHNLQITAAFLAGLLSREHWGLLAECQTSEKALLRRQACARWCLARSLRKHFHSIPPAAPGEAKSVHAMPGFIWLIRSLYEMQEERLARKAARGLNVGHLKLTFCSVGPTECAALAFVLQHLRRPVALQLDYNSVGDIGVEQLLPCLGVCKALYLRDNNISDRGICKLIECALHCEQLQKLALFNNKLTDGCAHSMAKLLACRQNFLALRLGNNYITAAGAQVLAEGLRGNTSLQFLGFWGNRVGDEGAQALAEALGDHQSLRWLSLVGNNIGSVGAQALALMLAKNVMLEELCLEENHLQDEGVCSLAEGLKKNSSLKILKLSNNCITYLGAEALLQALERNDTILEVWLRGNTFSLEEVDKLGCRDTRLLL

[22] = Luminescence Cell-Based Dose Confirmation HTS to Identify Inhibitors of Platelet Dense Granule Release. [Related pubchem assays: 1663 (Primary HTS), 1678 (Summary of Project)]; format: functional
CAAX prenyl protease 2 = target: T3, CAAX prenyl protease 2 (Homo sapiens, UniProt Q9Y256); assay: inhibition of Ras-converting CAAX protease Rce1 – biochemical, yeast membranes, quenched-peptide fluorescence, cherry-pick, dose response (AID 588849)
T3 sequence (Q9Y256 whole entry): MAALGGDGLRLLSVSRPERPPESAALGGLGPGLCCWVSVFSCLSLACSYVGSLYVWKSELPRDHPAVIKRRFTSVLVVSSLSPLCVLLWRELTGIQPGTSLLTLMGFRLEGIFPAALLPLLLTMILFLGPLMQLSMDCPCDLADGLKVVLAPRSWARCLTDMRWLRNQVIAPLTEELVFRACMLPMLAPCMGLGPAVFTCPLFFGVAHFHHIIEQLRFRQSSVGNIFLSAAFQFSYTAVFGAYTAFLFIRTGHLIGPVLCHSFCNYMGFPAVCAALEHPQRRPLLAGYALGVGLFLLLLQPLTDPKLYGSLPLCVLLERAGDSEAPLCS

[23] = target: Voltage-gated inwardly rectifying potassium channel KCNH2 (Homo sapiens, UniProt Q12809); conditions: Potency;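 also: confirmatory quantitative high-throughput screen measuring inhibition of hERG channel activity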
Chain of Voltage-gated inwardly rectifying potassium channel KCNH2 (Q12809 whole entry): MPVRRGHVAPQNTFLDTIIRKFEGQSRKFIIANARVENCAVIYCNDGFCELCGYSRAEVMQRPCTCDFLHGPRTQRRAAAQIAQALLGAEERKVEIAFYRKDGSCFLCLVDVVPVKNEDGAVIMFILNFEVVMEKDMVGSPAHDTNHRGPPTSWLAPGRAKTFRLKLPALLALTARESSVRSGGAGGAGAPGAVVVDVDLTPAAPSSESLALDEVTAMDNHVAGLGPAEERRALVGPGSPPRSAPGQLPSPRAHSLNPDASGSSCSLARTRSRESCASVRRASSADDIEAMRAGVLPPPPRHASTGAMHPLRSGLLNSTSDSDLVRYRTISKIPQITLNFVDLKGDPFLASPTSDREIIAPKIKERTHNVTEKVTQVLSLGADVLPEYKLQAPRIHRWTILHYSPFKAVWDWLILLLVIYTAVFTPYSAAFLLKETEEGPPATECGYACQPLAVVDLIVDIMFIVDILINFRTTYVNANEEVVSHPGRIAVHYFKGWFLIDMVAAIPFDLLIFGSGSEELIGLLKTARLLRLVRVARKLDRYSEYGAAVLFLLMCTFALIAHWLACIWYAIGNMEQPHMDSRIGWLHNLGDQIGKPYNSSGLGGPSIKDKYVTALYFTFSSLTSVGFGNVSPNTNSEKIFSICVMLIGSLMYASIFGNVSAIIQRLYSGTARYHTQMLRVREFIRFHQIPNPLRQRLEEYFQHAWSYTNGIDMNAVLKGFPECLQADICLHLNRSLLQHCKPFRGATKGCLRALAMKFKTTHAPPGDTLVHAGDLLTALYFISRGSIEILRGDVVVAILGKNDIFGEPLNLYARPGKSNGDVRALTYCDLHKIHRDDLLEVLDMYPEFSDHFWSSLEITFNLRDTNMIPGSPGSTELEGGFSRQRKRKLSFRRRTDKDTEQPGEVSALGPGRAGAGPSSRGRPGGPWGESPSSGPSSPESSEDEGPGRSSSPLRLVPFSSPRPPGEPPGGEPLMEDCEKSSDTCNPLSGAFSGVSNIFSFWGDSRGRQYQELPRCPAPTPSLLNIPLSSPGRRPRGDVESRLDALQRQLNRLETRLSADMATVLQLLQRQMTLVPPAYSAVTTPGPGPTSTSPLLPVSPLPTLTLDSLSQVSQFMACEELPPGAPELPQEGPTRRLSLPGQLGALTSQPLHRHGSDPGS

## COc1ccc(NC2=Nc3ccccc3CC2)cc1
HeLa
  AC50: > 350 µM (inactive)

## CC(C)C(=O)NC(c1cccc([N+](=O)[O-])c1)c1ccc2cccnc2c1O (centres undefined)
[1]
  IC50: > 119 µM (inactive)
[2]
  AC50: 0.924 µM (active)
Cells [3]
  EC50: 6.78 µM (active)
HEK293 [4]
  AC50: 6.46 µM (active)
Exodeoxyribonuclease V
  IC50: > 119 µM (inactive)
[5]
  AC50: 2.17 µM (active)
Cells [6]
  EC50: > 350 µM (not active)
[7]
  AC50: 2.57 µM (active)
[8]
  AC50: 2.7 µM (active)

## Cc1onc(-c2ccccc2)c1C(=O)ON=C(N)c1ccc([N+](=O)[O-])o1
[1]
  IC50: 69.7 µM (inactive)
[9]
  IC50: 35.9 µM (inactive)
Cells [10]
  IC50: 6.29 µM (active)
Steroidogenic factor 1
  IC50: 2.03 µM (active)
[11]
  IC50: 11.1 µM (inactive)
Exodeoxyribonuclease V
  IC50: > 119 µM (inactive)
[12]
  CC50: > 20 µM (active)
[13]
  CC50: > 40 µM (active)

## O=C(CCCN1C(=O)/C(=C/c2ccccc2Cl)SC1=S)NNC(=O)c1ccccc1
Phospholipase A2
  IC50: 5.28 µM (active)
HEK293 [14]
  IC50: 3.04 µM (active)
[15]
  EC50: > 112 µM (not active)
HEK293 [16]
  IC50: > 20 µM (inactive)
[17]
  IC50: > 80 µM (inactive)
HEK293 [18]
  IC50: 3.13 µM (active)
Cysteine protease ATG4B
  IC50: 16.6 µM (active)
HEK293 [19]
  EC50: > 20 µM (inactive)
HEK293 [20]
  IC50: > 20 µM (inactive)
[21]
  EC50: > 20 µM (inactive)
[22]
  EC50: > 112 µM (not active)

## Cc1ccc(S(=O)(=O)Nc2ccccc2C(=O)NCC2CCCO2)cc1 (centres undefined)
CAAX prenyl protease 2
  AC50: 44.8 µM (active)

## CSCc1ccc(C(=O)Nc2cc(C)cc(C)c2)cc1
HeLa
  AC50: 161 µM (active)

## Cc1ccccc1S(=O)(=O)NC(=Nc1nc2ccccc2s1)c1ccccc1
HeLa
  AC50: 263 µM (active)

## COc1ccc2c3c1O[C@H]1C(=O)CC[C@@]4(O)C(C2)N(CC2CC2)CCC314 (some centres undefined)
[23]
  AC50: 17.8 µM (inconclusive)

## CN1[C@@H]2CC[C@H]1C[C@@H](OC(c1ccccc1)c1ccccc1N)C2 (some centres undefined) [AMINOBENZTROPINE]
[23]
  AC50: 11.2 µM (inconclusive)
